Source: ChEMBL document CHEMBL1201862, “PubChem BioAssay data set” (2004)
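Protocol summary: plate cells (96-well), add compound at 5 concentrations, incubate 48 h, interpolate endpoints linearly. Here, GI50 denotes the concentration required for 50% inhibition of growth.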 The source made the active and inactive calls. Rule as the data show it: active = GI50 up to about 1.1 µM and inactive = higher.

Columns and labels:
Assay in all cases: NCI-60 cell line screen, 48 h
[1] = system: SNB-75
[2] = system: OVCAR-8
[3] = system: K562
[4] = system: OVCAR-3
[5] = system: NCI-H460
[6] = system: HCT-116
[7] = system: HOP-92
[8] = system: DU-145
[9] = system: Hs-578T
[10] = system: SN12C
[11] = system: CAKI-1
[12] = system: OVCAR-5
[13] = system: KM12
[14] = system: SR
[15] = system: ACHN
[16] = system: CCRF-CEM
[17] = system: SW-620
[18] = system: SK-MEL-28
[19] = system: A549
[20] = system: NCI/ADR-RES
[21] = system: OVCAR-4
[22] = system: SNB-19
[23] = system: BT-549
[24] = system: UACC-62
[25] = system: EKVX
[26] = system: SK-MEL-5
[27] = system: IGROV-1
[28] = system: HL-60
[29] = system: HCT-15
[30] = system: MOLT-4
[31] = system: SK-OV-3
[32] = system: NCI-H522
[33] = system: Malme-3M
[34] = system: RXF 393
[35] = system: M14
[36] = system: SF-295
[37] = system: SF-268
[38] = system: HOP-62
[39] = system: UACC-257
[40] = system: MDA-MB-231
[41] = system: TK-10
[42] = system: 786-0
[43] = system: NCI-H23
[44] = system: MCF7
[45] = system: SK-MEL-2
[46] = system: SF-539
[47] = system: MDA-MB-435
[48] = system: HT-29
[49] = system: UO-31
[50] = system: MDA-N
[51] = system: COLO 205
[52] = system: RPMI-8226
[53] = system: A498
[54] = system: HCC 2998
[55] = system: LOX IMVI
[56] = system: U-251
[57] = system: PC-3
[58] = system: T47D

CCCCCCCCCCCCCCCCCCNc1ccn(C2OC(COP(=O)(O)OCC3OC(n4cc(F)c(=O)[nH]c4=O)CC3O)C(O)C2O)c(=O)n1 (stereo not drawn)
GI50 [1]: 1.18 µM (inactive)
GI50 [2]: 1.36 µM (inactive)
GI50 [3]: 12.1 µM (inactive)
GI50 [4]: 7.67 µM (inactive)
GI50 [5]: 3.53 µM (inactive)
GI50 [6]: 2.98 µM (inactive)
GI50 [7]: > 100 µM (inactive)
GI50 [8]: 2.43 µM (inactive)
GI50 [9]: 17.8 µM (inactive)
GI50 [10]: 3.29 µM (inactive)
GI50 [11]: 1.16 µM (inactive)
GI50 [12]: 15 µM (inactive)
GI50 [13]: 15.5 µM (inactive)
GI50 [14]: 0.337 µM (active)
GI50 [15]: 0.778 µM (active)
GI50 [16]: 1.24 µM (inactive)
GI50 [17]: 42.8 µM (inactive)
GI50 [18]: > 100 µM (inactive)
GI50 [19]: 0.251 µM (active)
GI50 [20]: 1.33 µM (inactive)
GI50 [21]: 60 µM (inactive)
GI50 [22]: 20.2 µM (inactive)
GI50 [23]: 11.7 µM (inactive)
GI50 [24]: 1.19 µM (inactive)
GI50 [25]: 14.5 µM (inactive)
GI50 [26]: 23.1 µM (inactive)
GI50 [27]: 10.1 µM (inactive)
GI50 [28]: 0.678 µM (active)
GI50 [29]: 16.3 µM
GI50 [30]: 1.63 µM (inactive)
GI50 [31]: 27.5 µM (inactive)
GI50 [32]: 4.83 µM (inactive)
GI50 [33]: 0.634 µM (active)
GI50 [34]: 12.6 µM (inactive)
GI50 [35]: 3.31 µM (inactive)
GI50 [36]: 0.47 µM (active)
GI50 [37]: 0.0914 µM (active)
GI50 [38]: 0.356 µM (active)
GI50 [39]: > 89.7 µM (inactive)
GI50 [40]: > 100 µM (inactive)
GI50 [41]: 14.7 µM (inactive)
GI50 [42]: 2.19 µM (inactive)
GI50 [43]: 1.48 µM (inactive)
GI50 [44]: 0.274 µM (active)
GI50 [45]: 51.9 µM (inactive)
GI50 [46]: 0.207 µM (active)
GI50 [47]: 37.9 µM (inactive)
GI50 [48]: 5.38 µM (inactive)
GI50 [49]: 0.498 µM (active)
GI50 [50]: 46.6 µM (inactive)
GI50 [51]: 16.1 µM (inactive)
GI50 [52]: 1.44 µM (inactive)
GI50 [53]: 33.3 µM (inactive)
GI50 [54]: < 0.01 µM (active)
GI50 [55]: 1.36 µM (inactive)
GI50 [56]: 6.28 µM (inactive)
GI50 [57]: 1.53 µM (inactive)
GI50 [58]: 27.9 µM (inactive)
